Measurements published in US20150105252A1, “SUBSTITUTED PYRAZOLES AS HERBICIDES” (E I DU PONT DE NEMOURS AND COMPANY, priority 2013, published 2015).

Assays:
blackgrass = experiment: Test A postemergence; format: in vivo, Alopecurus myosuroides
Summary of the method: (§1)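 Visual injury rating, 0–100 (0 no effect, 100 complete control), vs untreated controls ~10 days after treatment in greenhouse. Pre: directed soil spray on seeded loam/sand. Post: 2–10 cm plants, 1–2 leaf stage. Formulation: non-phytotoxic solvent mix + surfactant.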

pigweed [1] = experiment: Test A preemergence; format: in vivo, Amaranthus retroflexus; settings: preemergence
Summary of the method: as §1

barnyardgrass [2] = experiment: Test B flood; format: in vivo, Echinochloa crus-galli; settings: 250 g ai/ha, visual rating on 0 to 100 scale (0 no effect, 100 complete control), 13 to 15 days
Summary of the method: (§2)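 Plants were grown to the 2-leaf stage, then pots were flooded to 3 cm above the soil and compounds were applied directly into the paddy water. Water depth was held for the whole test; after 13 to 15 days in a greenhouse, injury was visually rated against untreated controls (0 = no effect, 100 = complete control).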

Italian ryegrass [3] = experiment: Test A preemergence; format: in vivo, Lolium multiflorum
Summary of the method: as §1

sedge, umbrella = experiment: Test B flood; format: in vivo, Cyperus difformis; settings: 250 g ai/ha, visual rating on 0 to 100 scale (0 no effect, 100 complete control), 13 to 15 days
Summary of the method: as §2

pigweed [4] = experiment: Test A postemergence; format: in vivo, Amaranthus retroflexus
Summary of the method: as §1

barnyardgrass [5] = experiment: Test A postemergence; format: in vivo, Echinochloa crus-galli
Summary of the method: as §1

kochia [6] = experiment: Test A postemergence; format: in vivo, Kochia scoparia
Summary of the method: as §1

kochia [7] = experiment: Test A preemergence; format: in vivo, Kochia scoparia
Summary of the method: as §1

common ragweed [8] = experiment: Test A postemergence; format: in vivo, Ambrosia elation
Summary of the method: as §1

wheat = experiment: Test A postemergence; format: in vivo, Triticum aestivum
Summary of the method: as §1

common ragweed [9] = experiment: Test A preemergence; format: in vivo, Ambrosia elation
Summary of the method: as §1

rice = experiment: Test B flood; format: in vivo, Oryza sativa; settings: 250 g ai/ha, visual rating on 0 to 100 scale (0 no effect, 100 complete control), 13 to 15 days
Summary of the method: as §2

corn = experiment: Test A postemergence; format: in vivo, Zea mays
Summary of the method: as §1

ducksalad = experiment: Test B flood; format: in vivo, Heteranthera limosa; settings: 250 g ai/ha, visual rating on 0 to 100 scale (0 no effect, 100 complete control), 13 to 15 days
Summary of the method: as §2

foxtail, giant [10] = experiment: Test A postemergence; format: in vivo, Setaria faberii
Summary of the method: as §1

barnyardgrass [11] = experiment: Test A preemergence; format: in vivo, Echinochloa crus-galli; settings: preemergence
Summary of the method: as §1

foxtail, giant [12] = experiment: Test A preemergence; format: in vivo, Setaria faberii; settings: preemergence
Summary of the method: as §1

galium = experiment: Test A postemergence; format: in vivo, Galium aparine
Summary of the method: as §1

Italian ryegrass [13] = experiment: Test A postemergence; format: in vivo, Lolium multiflorum
Summary of the method: as §1

[14] = Postemergence, 500 g ai/ha, 0 to 100 scale (0 no effect, 100 complete control)
[15] = postemergence, 125 g ai/ha, about 10 days, visual rating on 0 to 100 scale (0 no effect, 100 complete control)
[16] = 125 g ai/ha, visual injury, 0 to 100 scale, approx. 10 days
[17] = 500 g ai/ha, visual injury after approx. 10 days, 0 to 100 scale (0 no effect, 100 complete control)

## CCc1cc(C(=O)NC2CC2)nn1Cc1cc(C(F)(F)F)no1 [Compound 124]
blackgrass; [14]
  Blackgrass plant response rating: 60
blackgrass; [15]
  Blackgrass plant response rating: 10
Pigweed [1]; [16]
  Pigweed plant response rating: 20
Pigweed [1]; [17]
  Pigweed plant response rating: 100
Barnyardgrass [2]
  Plant response rating, Barnyardgrass: 10
Italian ryegrass [3]; [16]
  Italian Ryegrass plant response rating: 0
Italian ryegrass [3]; [17]
  Italian Ryegrass plant response rating: 20
sedge, umbrella
  Plant response rating, Sedge, Umbrella: 20
Pigweed [4]; [14]
  Pigweed plant response rating: 100
Pigweed [4]; [15]
  Pigweed plant response rating: 30
Barnyardgrass [5]; [14]
  Barnyardgrass plant response rating: 70
Barnyardgrass [5]; [15]
  Barnyardgrass plant response rating: 0
Kochia [6]; [14]
  Kochia plant response rating: 90
Kochia [6]; [15]
  Kochia plant response rating: 50
Kochia [7]; [16]
  Kochia plant response rating: 20
Kochia [7]; [17]
  Kochia plant response rating: 90
Common ragweed [8]; [14]
  Common Ragweed plant response rating: 30
Common ragweed [8]; [15]
  Common Ragweed plant response rating: 20
wheat; [14]
  Wheat plant response rating: 0
wheat; [15]
  Wheat plant response rating: 0
Common ragweed [9]; [16]
  Common Ragweed plant response rating: 10
Common ragweed [9]; [17]
  Common Ragweed plant response rating: 40
rice
  Plant response rating, Rice: 20
corn; [14]
  Corn plant response rating: 40
corn; [15]
  Corn plant response rating: 10
ducksalad
  Plant response rating, Ducksalad: 30
foxtail, giant [10]; [14]
  Foxtail, Giant plant response rating: 90
foxtail, giant [10]; [15]
  Foxtail, Giant plant response rating: 0
Barnyardgrass [11]; [16]
  Barnyardgrass plant response rating: 0
Barnyardgrass [11]; [17]
  Barnyardgrass plant response rating: 100
foxtail, giant [12]; [16]
  Foxtail, Giant plant response rating: 20
foxtail, giant [12]; [17]
  Foxtail, Giant plant response rating: 100
galium; [14]
  Galium plant response rating: 80
galium; [15]
  Galium plant response rating: 10
Italian ryegrass [13]; [14]
  Italian Ryegrass plant response rating: 30
Italian ryegrass [13]; [15]
  Italian Ryegrass plant response rating: 10
